From ChEMBL document CHEMBL4823262, “Discovery of a Vitamin D Receptor-Silent Vitamin D Derivative That Impairs Sterol Regulatory Element-Binding Protein In Vivo” (J Med Chem, 2021) come the findings set out here.

The source made the active and inactive calls. The calls are words filed in the database; no cut-off is given here.

The target in one data set is T1, Vitamin D3 receptor (Homo sapiens, UniProt P11473).
T1 sequence (P11473 whole entry): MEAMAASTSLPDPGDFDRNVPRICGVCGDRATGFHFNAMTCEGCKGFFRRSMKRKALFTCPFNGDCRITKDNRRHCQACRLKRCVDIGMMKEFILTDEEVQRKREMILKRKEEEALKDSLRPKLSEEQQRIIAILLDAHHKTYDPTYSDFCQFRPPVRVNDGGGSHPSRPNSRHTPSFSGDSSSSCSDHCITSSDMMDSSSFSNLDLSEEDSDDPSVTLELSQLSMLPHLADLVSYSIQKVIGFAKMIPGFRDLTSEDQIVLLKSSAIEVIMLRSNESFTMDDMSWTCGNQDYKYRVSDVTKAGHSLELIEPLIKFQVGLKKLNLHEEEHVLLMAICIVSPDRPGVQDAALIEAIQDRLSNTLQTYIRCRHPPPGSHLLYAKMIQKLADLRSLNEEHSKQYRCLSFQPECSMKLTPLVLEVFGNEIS
As to the kind of experiment: Agonist activity at VDR (unknown origin) expressed in CHO-K1 cells at 5 uM by luciferase reporter assay. Format: cell-based. To be noted: cho-k1, 5 µM.

A further data set concerns CHO. Nature of the data set: Cytotoxicity against Chinese hamster CHO cells by beta-galactosidase reporter gene assay. Format: cell-based, Cricetulus griseus. Background: Reporter assays use an easily measured gene product as a stand-in for the process of interest.
Data set [1] can be described thus: Effect on serum calcium level in mouse assessed as increase in calcium level at 10 mg/kg, ip administered once daily for 4 days […]. To be noted: in vivo, 96 h, time 4 day. Format: ADME, organism-based.
Data set [2] deals with T2, Sterol regulatory element-binding protein 1 (Homo sapiens, UniProt P36956).
T2 sequence (P36956 whole entry): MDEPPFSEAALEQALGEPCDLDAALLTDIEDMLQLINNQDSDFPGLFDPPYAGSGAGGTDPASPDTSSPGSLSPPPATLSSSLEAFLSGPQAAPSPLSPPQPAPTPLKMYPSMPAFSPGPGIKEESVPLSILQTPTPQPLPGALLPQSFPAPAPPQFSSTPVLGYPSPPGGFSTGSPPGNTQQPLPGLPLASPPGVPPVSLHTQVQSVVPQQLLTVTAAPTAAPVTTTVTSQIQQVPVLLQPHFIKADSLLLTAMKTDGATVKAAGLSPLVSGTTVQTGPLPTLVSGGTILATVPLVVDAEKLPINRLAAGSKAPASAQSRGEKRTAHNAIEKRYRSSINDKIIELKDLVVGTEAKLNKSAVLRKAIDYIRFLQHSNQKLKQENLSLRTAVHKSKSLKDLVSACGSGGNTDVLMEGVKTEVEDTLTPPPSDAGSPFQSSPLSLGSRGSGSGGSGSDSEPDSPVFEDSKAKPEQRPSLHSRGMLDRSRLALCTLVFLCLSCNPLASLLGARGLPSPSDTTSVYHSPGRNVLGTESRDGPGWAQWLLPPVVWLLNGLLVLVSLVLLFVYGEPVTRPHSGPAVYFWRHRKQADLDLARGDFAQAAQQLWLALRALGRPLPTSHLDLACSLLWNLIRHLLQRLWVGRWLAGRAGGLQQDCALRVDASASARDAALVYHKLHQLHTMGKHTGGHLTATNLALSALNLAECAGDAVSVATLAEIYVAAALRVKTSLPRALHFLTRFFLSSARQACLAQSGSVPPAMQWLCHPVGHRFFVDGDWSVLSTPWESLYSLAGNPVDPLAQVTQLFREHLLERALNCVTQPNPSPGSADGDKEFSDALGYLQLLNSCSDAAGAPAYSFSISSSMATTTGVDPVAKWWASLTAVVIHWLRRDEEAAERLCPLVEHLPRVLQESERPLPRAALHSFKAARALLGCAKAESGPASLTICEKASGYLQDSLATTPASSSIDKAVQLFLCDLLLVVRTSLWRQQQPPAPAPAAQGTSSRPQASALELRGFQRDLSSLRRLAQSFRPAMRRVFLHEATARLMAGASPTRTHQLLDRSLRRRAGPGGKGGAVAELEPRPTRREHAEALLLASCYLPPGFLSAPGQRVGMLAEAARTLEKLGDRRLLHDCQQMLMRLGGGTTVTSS
As to the kind of experiment: Inhibition of SREBP (unknown origin) expressed in CHO-K1 cells by luciferase reporter assay. It is filed as cell-based.

Data set [3] in a line: Toxicity in ob/ob mouse assessed as sick at 10 mg/kg, ip administered 5 times per week for 4 weeks. It is filed as organism-based. To be noted: in vivo, 672 h.
The target of data set [4] is T3, Sterol regulatory element-binding protein cleavage-activating protein (Homo sapiens) (UniProt Q12770).
T3 sequence (whole entry): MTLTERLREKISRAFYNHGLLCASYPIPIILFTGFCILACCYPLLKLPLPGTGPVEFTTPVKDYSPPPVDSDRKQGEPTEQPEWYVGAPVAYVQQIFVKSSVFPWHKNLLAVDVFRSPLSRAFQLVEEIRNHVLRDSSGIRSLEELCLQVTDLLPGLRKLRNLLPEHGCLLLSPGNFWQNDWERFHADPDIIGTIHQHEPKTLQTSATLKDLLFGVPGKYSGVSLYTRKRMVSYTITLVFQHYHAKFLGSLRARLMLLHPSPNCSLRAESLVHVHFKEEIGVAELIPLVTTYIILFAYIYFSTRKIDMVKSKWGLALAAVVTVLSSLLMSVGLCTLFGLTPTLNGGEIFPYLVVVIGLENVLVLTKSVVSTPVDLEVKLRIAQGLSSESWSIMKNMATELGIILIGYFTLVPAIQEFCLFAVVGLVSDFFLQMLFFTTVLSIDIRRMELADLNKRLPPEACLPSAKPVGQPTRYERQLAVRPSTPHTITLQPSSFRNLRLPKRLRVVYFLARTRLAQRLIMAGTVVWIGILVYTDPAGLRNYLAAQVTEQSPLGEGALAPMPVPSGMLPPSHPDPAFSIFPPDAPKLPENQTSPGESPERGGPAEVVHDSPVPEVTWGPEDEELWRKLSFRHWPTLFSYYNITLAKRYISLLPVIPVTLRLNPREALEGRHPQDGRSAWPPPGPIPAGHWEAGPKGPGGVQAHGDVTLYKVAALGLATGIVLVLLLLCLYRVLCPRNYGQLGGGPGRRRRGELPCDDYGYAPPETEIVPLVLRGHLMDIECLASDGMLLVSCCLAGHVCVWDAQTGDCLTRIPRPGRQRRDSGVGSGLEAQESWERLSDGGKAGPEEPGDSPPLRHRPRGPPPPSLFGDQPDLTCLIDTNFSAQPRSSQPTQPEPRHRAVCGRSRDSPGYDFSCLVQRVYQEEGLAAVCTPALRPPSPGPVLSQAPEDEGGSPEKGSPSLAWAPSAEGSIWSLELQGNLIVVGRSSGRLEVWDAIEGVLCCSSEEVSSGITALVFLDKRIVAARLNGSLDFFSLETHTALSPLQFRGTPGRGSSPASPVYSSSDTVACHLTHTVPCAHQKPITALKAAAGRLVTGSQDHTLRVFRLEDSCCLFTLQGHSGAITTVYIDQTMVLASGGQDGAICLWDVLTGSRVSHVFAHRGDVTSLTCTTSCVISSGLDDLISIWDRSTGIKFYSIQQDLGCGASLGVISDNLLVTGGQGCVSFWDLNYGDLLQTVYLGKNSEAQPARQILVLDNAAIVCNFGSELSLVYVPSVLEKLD
As to the kind of experiment: Inhibition of FLAG-tagged SCAP (unknown origin) expressed in CHO-K1 cells assessed as reduction in SCAP protein level at 5 uM after 24 hrs by Western blotting analysis. Format: cell-based. Background: Immunoblotting shows a protein as a band on a membrane.

The species named for data set [5] is Mus musculus. To be noted: Liver, dose 10.0 mg/kg, time 4.0 day.
The species named for data set [6] is Mus musculus. To be noted: Liver, dose 10.0 mg/kg, time 4.0 day. The source holds these as a separate data set.
The nature of data set [7]: Toxicity in ob/ob mouse assessed as increase in weight at 10 mg/kg, ip administered 5 times per week for 4 weeks. Format: organism-based. To be noted: in vivo, 672 h.

With `C[C@H](CCC(F)(F)C(C)(C)O)[C@H]1CC[C@H]2/C(=C/Cn3cc(-c4ccc(F)cc4)nn3)CCC[C@]12C`, on Vitamin D3 receptor, the Activity entry was “Not Active”.
Regarding `C[C@H](CCC(F)(F)C(C)(C)O)[C@H]1CC[C@H]2/C(=C/Cn3nnc(-c4ccc(F)cc4)n3)CCC[C@]12C`, the figures for the Activity entry in the data set on CHO and on Vitamin D3 receptor were “Non-Toxic” and “Not Active”, respectively.
Take `C[C@H](CCCC(C)(C)O)[C@H]1CC[C@H]2/C(=C/Cn3ncnn3)CCC[C@]12C`: on Vitamin D3 receptor, the outcome was Active.
In the case of `C[C@H](CCC(F)(F)C(C)(C)O)[C@H]1CC[C@H]2/C(=C/Cn3nnnc3-c3ccc(F)cc3)CCC[C@]12C`, the Activity entry with CHO was “Non-Toxic”; at Vitamin D3 receptor, “Not Active”.
In the case of `C=C1CC[C@H](O)C/C1=C/C=C1\CCC[C@]2(C)[C@@H]([C@H](C)CCCC(C)(C)O)CC[C@@H]12` [CALCIFEDIOL ANHYDROUS], the Activity entry in data set [1] and in data set [3] was “Toxic” throughout. Also, the IC50 (as a rule, the concentration that inhibits the measured activity by half) in [2] turned out to be 1180 nM. Moreover, the inhibition result in [4] was “Active”.
For `C[C@H](CCCC(O)(C(F)(F)F)C(F)(F)F)[C@H]1CC[C@H]2/C(=C/Cn3cc(-c4ccc(F)cc4)nn3)CCC[C@]12C`, the inhibition result in the data set filed under Mus musculus [5] and in the data set filed under Mus musculus [6] was “Active” each time. In addition, the results for the Activity result (in data set [1]; at Vitamin D3 receptor) were “Toxic” and “Not Active”, respectively.
With `C[C@H](CCCC(C)(C)O)[C@H]1CC[C@H]2/C(=C/Cn3cc(-c4ccccn4)nn3)CCC[C@]12C`, the outcome at Vitamin D3 receptor was Active.
As for `C[C@H](CCCC(C)(C)O)[C@H]1CC[C@H]2/C(=C/Cn3cnnn3)CCC[C@]12C`, the result at Vitamin D3 receptor was Active.
In the case of `C[C@H](CCC(F)(F)C(C)(C)O)[C@H]1CC[C@H]2/C(=C/Cn3nnnc3-c3ccccc3)CCC[C@]12C`, the Activity entry in data set [7] was “Toxic”; in the data set on CHO it was “Non-Toxic”; in data set [3], “Non-Toxic”.
Turning to `C[C@H](CCCC(O)(C(F)(F)F)C(F)(F)F)[C@H]1CC[C@H]2/C(=C/Cn3cc(-c4ccccc4)nn3)CCC[C@]12C`, the inhibition entry in the data set listed under Mus musculus [5] and in the data set filed under Mus musculus [6] was “Active” each time. The Activity result in data set [1] is given as “Toxic”.
`CCCc1cc(-c2nc(-c3ccc(NS(C)(=O)=O)cc3)cs2)ccn1` showed a half-inhibitory concentration (IC50) in [2] of 700 nM.
Consider `C[C@H](CCCC(C)(C)O)[C@H]1CC[C@H]2/C(=C/Cn3cc(CCCCO)nn3)CCC[C@]12C`, for which the outcome on Vitamin D3 receptor was Active.
